The text below walks through data of PubChem BioAssay AID256 (DTP/NCI, 2004).

In the assay the test system is CD2F1 mice, L1210 leukemia ip, survival T/C. In words: NCI In Vivo Anticancer Drug Screen. Data for tumor model L1210 Leukemia (intraperitoneal) in CD2F1 (CDF1) mice. The note with it: higher = longer survival. A digest of the protocol:
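Tumor-bearing mice (transplanted tumor) were split into treated and vehicle control groups, and the measured endpoint of each treated group was divided by that of its vehicle controls.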

Where [1] appears, read: endpoint: mean survival time, dose: 100.0 mg/kg/injection, schedule: Q04DX002 (ip), vehicle: saline with Tween-80.
The mark [2] stands for this setting: endpoint: mean survival time, dose: 200.0 mg/kg/injection, schedule: Q04DX002 (ip), vehicle: saline with Tween-80.
The mark [3] stands for this setting: endpoint: mean survival time, dose: 100.0 mg/kg/injection, schedule: Q01DX001 (ip), vehicle: saline.
[4] abbreviates: endpoint: mean survival time, dose: 200.0 mg/kg/injection, schedule: Q01DX001 (ip), vehicle: saline.
The mark [5] stands for this setting: endpoint: mean survival time, dose: 400.0 mg/kg/injection, schedule: Q01DX001 (ip), vehicle: saline.
Setting [6] is: endpoint: mean survival time, dose: 100.0 mg/kg/injection, schedule: Q01DX001 (ip), vehicle: saline with Tween-80.
Setting [7] is: endpoint: mean survival time, dose: 200.0 mg/kg/injection, schedule: Q01DX001 (ip), vehicle: saline with Tween-80.
The mark [8] stands for this setting: endpoint: mean survival time, dose: 400.0 mg/kg/injection, schedule: Q01DX001 (ip), vehicle: saline with Tween-80.
[9] abbreviates: endpoint: mean survival time, dose: 100.0 mg/kg/injection, schedule: Q04DX003 (ip), vehicle: saline with Tween-80.
Setting [10] is: endpoint: mean survival time, dose: 200.0 mg/kg/injection, schedule: Q04DX003 (ip), vehicle: saline with Tween-80.
The mark [11] stands for this setting: endpoint: mean survival time, dose: 100.0 mg/kg/injection, schedule: Q01DX009 (ip), vehicle: saline with Tween-80.
Where [12] appears, read: endpoint: mean survival time, dose: 200.0 mg/kg/injection, schedule: Q01DX009 (ip), vehicle: saline with Tween-80.
Setting [13] is: endpoint: mean survival time, dose: 400.0 mg/kg/injection, schedule: Q01DX009 (ip), vehicle: saline with Tween-80.
[14] abbreviates: endpoint: mean survival time, dose: 400.0 mg/kg/injection, schedule: Q04DX003 (ip), vehicle: saline with Tween-80.

Several values for one entry are separate records, joined by “and”; a condition that tells them apart may be missing. Identical values can stand only once. Toxic doses and inconclusive results are not listed.

`CN(C)S(=O)(=O)c1ccccc1C(=O)O`: the T/C (endpoint: mean survival time, dose: 100.0 mg/kg/injection, schedule: Q04DX003 (ip), vehicle: saline sonified) is 100 % of control; the T/C (endpoint: mean survival time, dose: 200.0 mg/kg/injection, schedule: Q04DX003 (ip), vehicle: saline sonified) is 100 % of control; the T/C (endpoint: mean survival time, dose: 400.0 mg/kg/injection, schedule: Q04DX003 (ip), vehicle: saline sonified) was 93 % of control.
As to `O=S(=O)(F)c1ccc(Cl)c(Cl)c1S`, the T/C is 98 % of control under setting [1] and 98 % of control under setting [2].
With `CC1Cc2c([nH]c(=O)n(-c3ccccc3)c2=O)O1` (stereo not given), the T/C reads like this: under setting [3], 103 % of control; under setting [4], 92 % of control; under setting [5], 92 % of control.
As for `CCOC(=O)CSc1ccc(F)cc1`, the T/C reads like this: under setting [3], 90 % of control; under setting [4], 100 % of control; under setting [5], 91 % of control.
On to `CCOC(=O)NC(S(=O)(=O)O)S(=O)(=O)O`, for which the T/C is, setting by setting: under setting [3], 104 % of control; under setting [4], 104 % of control; under setting [5], 108 % of control.
Regarding `Nc1ccc2nc3ccc(N)cc3[n+](-c3ccccc3)c2c1`, the T/C is 105 % of control (endpoint: mean survival time, dose: 6.0 mg/kg/injection, schedule: Q01DX009 (ip), vehicle: saline); 105 % of control (endpoint: mean survival time, dose: 8.0 mg/kg/injection, schedule: Q01DX009 (ip), vehicle: saline); 110 % of control (endpoint: mean survival time, dose: 12.0 mg/kg/injection, schedule: Q01DX009 (ip), vehicle: saline).
In the case of `CC(C)(C)NC(=O)Nc1ccc(Cl)c(Cl)c1`, the T/C by setting is: under setting [6], 93 % of control; under setting [7], 88 % of control; under setting [8], 93 % of control.
For the compound `N#Cc1nccnc1Cl`, the T/C under setting [9] was 96 % of control and the T/C under setting [10] was 86 % of control.
`O=C(CCCl)Oc1c(Cl)c(Cl)c(Cl)c(Cl)c1Cl`: the T/C under setting [11] was 92 % of control.
`O=C(CC(=O)Nc1ccc([N+](=O)[O-])cc1)Nc1ccc([N+](=O)[O-])cc1`: the T/C by setting is: under setting [11], 91 % of control; under setting [12], 86 % of control; under setting [13], 89 % of control.
As for `Cc1cccc(OCC(=O)O)c1`, the T/C by setting is: (endpoint: mean survival time, dose: 50.0 mg/kg/injection, schedule: Q01DX009 (ip), vehicle: saline with Tween-80) 97 % of control; under setting [11], 95 % of control; under setting [9], 95 % of control; under setting [12], 90 % of control; under setting [10], 93 % of control.
Regarding `O=C(c1ccccc1)c1ccc(OCCOc2ccc(C(=O)c3ccccc3)cc2)cc1`, the T/C is, setting by setting: under setting [9], 96 % of control; under setting [10], 93 % of control; under setting [14], 93 % of control.
Take `CSc1ncc(Br)c(C(=O)O)n1`: the T/C under setting [9] is 96 % of control, the T/C under setting [10] is 96 % of control and the T/C under setting [14] is 93 % of control.
On to `CCOC(=O)C([NH-])C([NH-])C(=O)OCC.[Cl][Pt+2][Cl]` (stereo not given), for which the T/C reads like this: (endpoint: mean survival time, dose: 12.5 mg/kg/injection, schedule: Q04DX003 (ip), vehicle: saline with Tween-80) 186 % of control; (endpoint: mean survival time, dose: 25.0 mg/kg/injection, schedule: Q04DX003 (ip), vehicle: saline with Tween-80) 195 % of control.
For the compound `CCCCCCC(C/C=C\CCCCCCCC(=O)OC)OC(C)=O` (stereo not given), the T/C is 101 % of control under setting [9], 101 % of control under setting [10] and 97 % of control under setting [14].
Turning to `COC(=O)c1ccc(NC(=O)Cc2c(O)c3c(c(C)c2OC)COC3=O)cc1N`, the T/C was 100 % of control (endpoint: mean survival time, dose: 100.0 mg/kg/injection, schedule: Q04DX002 (ip), vehicle: saline); 112 % of control (endpoint: mean survival time, dose: 200.0 mg/kg/injection, schedule: Q04DX002 (ip), vehicle: saline); 102 % of control (endpoint: median survival time, dose: 100.0 mg/kg/injection, schedule: Q04DX002 (ip), vehicle: saline); 106 % of control (endpoint: median survival time, dose: 200.0 mg/kg/injection, schedule: Q04DX002 (ip), vehicle: saline).
With `Cc1cccc(/C(=C\c2ccc([N+](=O)[O-])cc2)C(=O)Nc2ccc(S(=O)(=O)F)c(C)c2)c1`, the T/C (endpoint: mean survival time, dose: 50.0 mg/kg/injection, schedule: Q01DX009 (ip), vehicle: Klucel (hydroxypropylcellulose) (HPC)) was 91 % of control; the T/C (endpoint: mean survival time, dose: 100.0 mg/kg/injection, schedule: Q01DX009 (ip), vehicle: Klucel (hydroxypropylcellulose) (HPC)) was 94 % of control; the T/C (endpoint: mean survival time, dose: 200.0 mg/kg/injection, schedule: Q01DX009 (ip), vehicle: Klucel (hydroxypropylcellulose) (HPC)) was 112 % of control.
As for `CCCNC(=O)Oc1c(C(C)C)ccc(C)c1Cl`, the T/C was 98 % of control (endpoint: mean survival time, dose: 100.0 mg/kg/injection, schedule: Q04DX003 (ip), vehicle: saline); 101 % of control (endpoint: mean survival time, dose: 200.0 mg/kg/injection, schedule: Q04DX003 (ip), vehicle: saline); 95 % of control (endpoint: mean survival time, dose: 400.0 mg/kg/injection, schedule: Q04DX003 (ip), vehicle: saline).
For the compound `CCOC(=O)c1cnc(SCc2ccccc2)nc1N`, the T/C runs as follows: under setting [11], 92 % of control; under setting [9], 100 % of control; under setting [12], 94 % of control; under setting [10], 100 % of control; under setting [13], 96 % of control; under setting [14], 97 % of control.
`CCC1(C)C=CCC(C)(C)S1` (stereo not given): the T/C reads like this: under setting [1], 102 % of control; under setting [2], 91 % of control.
As to `Cc1cccc(C(=O)OCCBr)c1`, for the setting “endpoint: mean survival time, dose: 75.0 mg/kg/injection, schedule: Q01DX009 (ip), vehicle: saline with Tween-80”, the T/C is 102 % of control.
Regarding `O=[N+]([O-])c1ccc(O)c(CCl)c1`, the T/C was 102 % of control (endpoint: mean survival time, dose: 75.0 mg/kg/injection, schedule: Q01DX001 (ip), vehicle: saline); 93 % of control (endpoint: mean survival time, dose: 150.0 mg/kg/injection, schedule: Q01DX001 (ip), vehicle: saline); 96 % of control (endpoint: mean survival time, dose: 300.0 mg/kg/injection, schedule: Q01DX001 (ip), vehicle: saline).
Consider `CCCCCCCCCN=C(N)CSSCC(N)=NCCCCCCCCC`, for which the T/C is, setting by setting: (endpoint: mean survival time, dose: 12.5 mg/kg/injection, schedule: Q01DX001 (ip), vehicle: Klucel (hydroxypropylcellulose) (HPC)) 94 % of control; (endpoint: mean survival time, dose: 25.0 mg/kg/injection, schedule: Q01DX001 (ip), vehicle: Klucel (hydroxypropylcellulose) (HPC)) 101 % of control.
`C1CC2(CCC13CO3)CO2` (stereo not given): the T/C (endpoint: mean survival time, dose: 25.0 mg/kg/injection, schedule: Q04DX002 (ip), vehicle: saline with Tween-80) is 91 % of control; the T/C (endpoint: mean survival time, dose: 50.0 mg/kg/injection, schedule: Q04DX002 (ip), vehicle: saline with Tween-80) is 91 % of control and 103 % of control; the T/C (endpoint: mean survival time, dose: 100.0 mg/kg/injection, schedule: Q04DX002 (ip), vehicle: Klucel (hydroxypropylcellulose) (HPC)) is 102 % of control; the T/C under setting [1] is 91 % of control and 107 % of control; the T/C (endpoint: mean survival time, dose: 200.0 mg/kg/injection, schedule: Q04DX002 (ip), vehicle: Klucel (hydroxypropylcellulose) (HPC)) was 112 % of control; the T/C under setting [2] is 100 % of control and 119 % of control. The T/C reads like this: (endpoint: mean survival time, dose: 400.0 mg/kg/injection, schedule: Q04DX002 (ip), vehicle: Klucel (hydroxypropylcellulose) (HPC)) 119 % of control; (endpoint: mean survival time, dose: 600.0 mg/kg/injection, schedule: Q04DX002 (ip), vehicle: Klucel (hydroxypropylcellulose) (HPC)) 119 % of control; (endpoint: median survival time, dose: 50.0 mg/kg/injection, schedule: Q04DX002 (ip), vehicle: saline with Tween-80) 102 % of control; (endpoint: median survival time, dose: 100.0 mg/kg/injection, schedule: Q04DX002 (ip), vehicle: saline with Tween-80) 105 % of control; (endpoint: median survival time, dose: 200.0 mg/kg/injection, schedule: Q04DX002 (ip), vehicle: saline with Tween-80) 105 % of control; (endpoint: median survival time, dose: 400.0 mg/kg/injection, schedule: Q04DX002 (ip), vehicle: saline with Tween-80) 109 % of control. Also, the T/C (endpoint: median survival time, dose: 800.0 mg/kg/injection, schedule: Q04DX002 (ip), vehicle: saline with Tween-80) was 114 % of control.
For the compound `CC(=O)NC(C=O)C(O)C1OC(c2ccccc2)OCC1O` (stereo not given), the T/C runs as follows: under setting [6], 97 % of control; under setting [11], 95 % of control; under setting [7], 97 % of control; under setting [12], 98 % of control; under setting [8], 94 % of control; under setting [13], 92 % of control.
